Data as given in the Kinase Knowledgebase extract (Sharma et al. 2016).

Target: PIK3CB;PIK3CG;PIK3CD;PIK3CA (human) (UniProt P48736)
Assay: Inhibition of PIK3CA/PIK3CB/PIK3CD/PIK3CG Kinase Activity

SMILES	IC50 [nM]
COc1ccc(CCO)c(Nc2nc3ccccc3nc2NS(=O)(=O)c2ccc(CN3CCC(F)CC3)cc2)c1	43
COc1ccc(C(CO)CO)c(Nc2nc3ccccc3nc2NS(=O)(=O)c2cn(C)cn2)c1	550
COc1ccc(CCCO)c(Nc2nc3ccccc3nc2NS(=O)(=O)c2ccc(NC(=O)CN(C)C)cc2)c1	32
COc1ccc(CCCO)c(Nc2nc3ccccc3nc2NS(=O)(=O)C(C)C)c1	72
CCCS(=O)(=O)Nc1nc2ccccc2nc1Nc1cc(OC)ccc1CCO	44
COc1ccc(CC2CCN(S(C)(=O)=O)CC2)c(Nc2nc3ccccc3nc2NS(=O)(=O)c2cn(C)cn2)c1	160
COc1ccc(CC2CCSCC2)c(Nc2nc3ccccc3nc2NS(=O)(=O)c2cn(C)cn2)c1	100
COc1ccc(CC2CCN(C)CC2)c(Nc2nc3ccccc3nc2NS(=O)(=O)c2cccnc2)c1	45
COc1ccc(CC2CCCCC2)c(Nc2nc3ccccc3nc2NS(=O)(=O)c2ccc(CN(C)C)cc2)c1	760
COc1ccc(CC2CCCC2)c(Nc2nc3ccccc3nc2NS(=O)(=O)c2cn(C)cn2)c1	180
COCCc1ccc(OC)cc1Nc1nc2ccccc2nc1NS(=O)(=O)C1CCN(C(C)=O)CC1	300
COc1ccc(CCS(C)(=O)=O)c(Nc2nc3ccccc3nc2NS(=O)(=O)CCCSC)c1	140
